This note sets out measurements from ChEMBL document CHEMBL5357057, “Pleosmaranes A-R, Isopimarane and 20-nor Isopimarane Diterpenoids with Anti-inflammatory Activities from the Mangrove Endophytic Fungus Pleosporales sp. HNQQJ-1” (J Nat Prod, 2024).

Series [1] has as its system RAW264.7. The experiment in a line: Anti-inflammatory activity in mouse RAW264.7 cells assessed as inhibition of LPS-induced NO production incubated for 24 hrs by Griess reagent based analysis. Type of series: functional, cell-based. Particulars: RAW264.7, 24 h.
Series [2] concerns RAW264.7. Description: Cytotoxicity against mouse RAW264.7 cells assessed as reduction in cell viability at 5 to 50 uM measured for 24 hrs by MTT assay. The series is classed as toxicity, cell-based. Particulars: raw264.7, 24 h, dose 5-50 µM.

Bounds are passed on as bounds.

What is called IC50 is the point on the concentration scale where inhibition reaches its midpoint. Regarding `C=C[C@@]1(C)CCc2c(c(O)cc3c2CCCC3(C)C)C1`, the IC50 with RAW264.7 [1] was over 50 µM. The Activity result in the series on RAW264.7 [2] is given as “Non-Toxic”.
Take `C=C[C@]1(C)C=C2C(=O)C[C@H]3C(C)(C)CC[C@@H](OC(C)=O)[C@]3(C)[C@@]2(O)CC1`: the IC50 with RAW264.7 [1] came to 33 µM. Moreover, in the series on RAW264.7 [2], the Activity entry is given as “Non-Toxic”.
The like results for `C=C[C@@]1(C)CCc2c3c(cc(O)c2[C@@H]1OC)C(C)(C)CCC3` were, in that order, 30 µM and “Non-Toxic”.
Consider `C=C[C@@]1(C)CCC2=C([C@H]3O[C@@H](OC)[C@@]24CCCC(C)(C)[C@@H]4[C@H]3OC(C)=O)[C@H]1O`, for which, in the series on RAW264.7 [1], the IC50 is 37 µM. Further, in the series with RAW264.7 [2], the Activity entry is given as “Non-Toxic”.
The matching figures for `C=C[C@@]1(C)CCc2c3c(cc(O)c2[C@@H]1OC)C(C)(C)[C@@H](O)CC3`: 35 µM and “Non-Toxic”.
Consider `C=C[C@@]1(C)CCc2c3c(cc(O)c2[C@@H]1O)[C@@](C)(CO)CCC3`, for which the half-inhibitory concentration (IC50) with RAW264.7 [1] is over 50 µM. Also, the Activity entry in the series on RAW264.7 [2] is “Non-Toxic”.
Turning to `C=C[C@]1(C)C=C2[C@@H](O)C[C@H]3C(C)(C)CC[C@@H](OC(C)=O)[C@]3(C)[C@@]2(O)CC1`, the half-maximal inhibitory concentration (IC50) with RAW264.7 [1] is 25 µM. In addition, the Activity entry with RAW264.7 [2] is “Non-Toxic”.
Take `C=C[C@]1(C)C=C2[C@@H](O)[C@H](O)[C@H]3C(C)(C)CC[C@@H](OC(C)=O)[C@]3(C)[C@@]2(O)CC1`: in the series with RAW264.7 [1], the half-inhibitory concentration (IC50) was found to be 35 µM. The Activity entry with RAW264.7 [2] is given as “Non-Toxic”.
Consider `C=C[C@@]1(C)CCc2c3c(cc(O)c2[C@H]1O)[C@](C)(CO)CCC3`, for which the IC50 with RAW264.7 [1] is over 50 µM. Besides, the Activity entry with RAW264.7 [2] is recorded as “Non-Toxic”.
As for `C=C[C@]1(C)C=C2[C@H]3O[C@@H](O)[C@@]4(CCCC(C)(C)[C@@H]4[C@H]3OC(C)=O)[C@@]2(O)CC1`, the concentration for half-maximal inhibition (IC50) in the series with RAW264.7 [1] is 33 µM. In the series with RAW264.7 [2], the Activity entry was “Non-Toxic”.
For `C=C[C@@]1(C)CCc2c3c(cc(O)c2[C@H]1OC)C(C)(C)CCC3`, the IC50 in the series with RAW264.7 [1] came out at 37 µM. The Activity result in the series with RAW264.7 [2] is given as “Non-Toxic”.
Regarding `C=C[C@@]1(C)CCC2=C(C1)C(=O)C[C@H]1C(C)(C)[C@H](O)C[C@@H](O)[C@]21C`, in the series with RAW264.7 [1], the IC50 was over 50 µM. Further, the Activity entry with RAW264.7 [2] is reported as “Non-Toxic”.
`C=C[C@]1(C)C=C2[C@@H](OC(C)=O)[C@H]3OC(=O)[C@@]4(CCCC(C)(C)[C@H]34)[C@@]2(O)CC1`: the IC50 with RAW264.7 [1] was found to be 35 µM. Moreover, the Activity result with RAW264.7 [2] is reported as “Non-Toxic”.
Take `C=C[C@@]1(C)C[C@H](O)c2c3c(cc(O)c2[C@H]1OC)C(C)(C)CCC3`: the IC50 with RAW264.7 [1] came to 38 µM. Moreover, in the series on RAW264.7 [2], the Activity entry is reported as “Non-Toxic”.
Consider `C=C[C@@]1(C)CC[C@@]2(O)C(=C[C@H](O)[C@H]3C(C)(C)CC[C@@H](OC(C)=O)[C@@]32C)[C@H]1O`, for which, in the series on RAW264.7 [1], the concentration for half-maximal inhibition (IC50) is over 50 µM. In the series with RAW264.7 [2], the Activity entry is “Non-Toxic”.
In the case of `C=C[C@@]1(C)CCc2c3c(cc(O)c2[C@H]1O)C(C)(C)CCC3`, the IC50 in the series with RAW264.7 [1] is over 50 µM. The Activity result in the series with RAW264.7 [2] is given as “Non-Toxic”.
The like results for `C=C[C@]1(C)C=C2[C@](O)(CC1)[C@@]13CCCC(C)(C)[C@@H]1[C@@H](OC(C)=O)[C@]2(O)OC3` were, in that order, 30 µM and “Non-Toxic”.
In the case of `C=C[C@@]1(C)CCc2c3c(cc(O)c2C1=O)[C@](C)(CO)CCC3`, the half-maximal inhibitory concentration (IC50) in the series with RAW264.7 [1] worked out at 19 µM. Moreover, the Activity result in the series with RAW264.7 [2] was “Non-Toxic”.
The matching figures for `C=C[C@@]1(C)CCc2c3c(cc(O)c2[C@H]1OC)[C@](C)(CO)CCC3`: 42 µM and “Non-Toxic”.
For `C=C[C@@]1(C)CCc2c3c(cc(O)c2[C@@H]1OC)[C@@](C)(CO)CCC3`, in the series on RAW264.7 [1], the IC50 was 42 µM. Also, the Activity result with RAW264.7 [2] is “Non-Toxic”.
Turning to `C=C[C@@]1(C)CCc2c3c(cc(O)c2[C@@H]1O)C(C)(C)CCC3`, in the series on RAW264.7 [1], the IC50 turned out to be 40 µM. The Activity entry with RAW264.7 [2] is recorded as “Non-Toxic”.
For the compound `C=C[C@]1(C)C=C2C(=O)C[C@H]3C(C)(C)CCC[C@]3(C(=O)O)[C@@]2(O)CC1` [SPHAEROPSIDIN C], the IC50 in the series on RAW264.7 [1] was 31 µM. In the series with RAW264.7 [2], the Activity entry was “Non-Toxic”.
